Reference: US12208108B2, “Drug targets of delayed aging and human brain diseases” (Texas Tech University System, priority 2016, dated 2025)

How the values were obtained:
[1] = system: SHSY5Y cells; assay: Immunofluorescence analysis of Drp1, synaptophysin and PSD95; format: cell-based, Human
Method: Immunofluorescence analysis of Drp1, synaptophysin and PSD95. To determine the effect of Aβ and DDQ on Drp1, synaptophysin and PSD95 levels and localizations, immunofluorescence analysis was performed in cells treated as shown in FIG. 7.
Immunofluorescence analysis. To study immune-reactivity of proteins of interest, cells were grown on coverslips using regular cell culture medium and treated as shown in strategy FIG. 3 and performed immunofluorescence analysis using the antibodies in these treated and untreated cells as described by Manzcak et al. Cells were washed with warm PBS, fixed in freshly prepared 4% paraformaldehyde in PBS for 10 min, and then washed with PBS and permeabilized with 0.1% Triton-X100 in PBS. They were blocked with 1% blocking solution (Invitrogen) for 1 hr at room temperature. All neurons were incubated overnight with primary antibodies. The neurons were incubated with appropriate secondary antibodies. The cells were washed neurons 3 times with PBS, and slides were mounted. Photographs were taken with a multiphoton laser scanning microscope system (ZeissMeta LSM510). To quantify the immunoreactivity of proteins of interest, for each treatment 10-15 photographs were taken at ×20 magnification.

[2] = molecular target: T1, colocalization of Drp1 and Aβ (Homo sapiens, UniProt O00429); assay: Double-labeling immunofluorescence analysis of Drp1 and Aβ; format: cell-based
T1 construct: SHSY5Y cells incubated with Aβ peptide 1-42 (20 uM final concentration); Anaspec (Aβ 1-42 peptide); host or cells: SHSY5Y human neuroblastoma cells
Method: Double-labeling immunofluorescence analysis of Drp1 and Aβ. To determine whether Drp1 localizes and interacts with Aβ, the inventors conducted double-labeling analysis of Drp1 and Aβ in DDQ pre-treated, post-treated and untreated, Aβ incubated cells.
Double labeling immunofluorescence analysis of Drp1 and Aβ. To determine the interaction between Drp1 and Aβ, the inventors conducted double-labeling immunofluorescence analysis, using an anti-Drp1 antibody (rabbit polyclonal, Santa Cruz Biotechnology) and 6E10 (Covance). As described earlier, the sections from AD patients and control subjects were deparaffinized and treated with sodium borohydrate to reduce autofluorescence.
For the first labeling, the Aβ incubated (DDQ pre-treated, post-treated and untreated) cells were incubated overnight with the anti-Drp1 antibody (1:200) at room temperature. On the day after this primary antibody incubation, the sections were washed with 0.5% Triton in PBS. They were then incubated with a secondary biotinylated anti-rabbit antibody at a 1:400 dilution (Vector Laboratories, Burlingame, Calif., USA) or a secondary biotinylated anti-mouse antibody (1:400) for 1 h at room temperature. They were incubated for 1 h with labeled streptavidin, an HRP solution (Molecular Probes). […]

[3] = system: mutant APPSwe/Ind cells; assay: Sandwich ELISA of Aβ40 and Aβ42; format: cell-based, mouse; conditions: DDQ treated vs DDQ untreated mutant APPSwe/Ind cells, protein lysates
Description: FIGS. 9A and 9B show sandwich ELISA analysis of Aβ40 and 42 in mutant APPSwe/Ind cells treated and untreated with DDQ. The inventors performed sandwich ELISA using protein lysates mutant APP cells treated and untreated with DDQ.
DDQ reduces soluble Aβ42 in mutant APPSwe/Ind cells treated with DDQ. To determine whether DDQ reduces Aβ levels, the inventors performed sandwich ELISA using protein lysates of mutant APPSwe/Ind cells treated with DDQ. […] These observations indicate that DDQ reduces Aβ42 levels in mutant APPSwe/Ind cells.
Mutant APPSwe/Ind cells: The inventors purchased mutant APPSwe cDNA clone (pCAX-APPSwe/Ind) from Addgene—https://www.addgene.org and verified expression of mutant APP APPSwe/Ind cDNA and further sub-cloned into a mammalian expression vector (Arubala P. Reddy—unpublished observations). The inventors transfected mutant APPSwe/Ind cDNA into mouse neuroblastoma (N2a) cells for 24 hrs and after transfection, cells were treated with DDQ (250 nM) for 24 hrs. The inventors harvested mutant APPSwe/Ind cells treated and untreated with DDQ and prepared protein lysates and performed co-immunoprecipitation using Aβ (6E10) antibody and conducted immunoblotting analysis with 6E10 and Drp1 antibodies.

[4] = Aβ + DDQ (Aβ1-42 6 hrs, then DDQ 24 hrs) vs Aβ treated cells
[5] = DDQ + Aβ (DDQ 24 hrs, then Aβ1-42 6 hrs) vs Aβ treated cells

T1 sequence (O00429 whole entry): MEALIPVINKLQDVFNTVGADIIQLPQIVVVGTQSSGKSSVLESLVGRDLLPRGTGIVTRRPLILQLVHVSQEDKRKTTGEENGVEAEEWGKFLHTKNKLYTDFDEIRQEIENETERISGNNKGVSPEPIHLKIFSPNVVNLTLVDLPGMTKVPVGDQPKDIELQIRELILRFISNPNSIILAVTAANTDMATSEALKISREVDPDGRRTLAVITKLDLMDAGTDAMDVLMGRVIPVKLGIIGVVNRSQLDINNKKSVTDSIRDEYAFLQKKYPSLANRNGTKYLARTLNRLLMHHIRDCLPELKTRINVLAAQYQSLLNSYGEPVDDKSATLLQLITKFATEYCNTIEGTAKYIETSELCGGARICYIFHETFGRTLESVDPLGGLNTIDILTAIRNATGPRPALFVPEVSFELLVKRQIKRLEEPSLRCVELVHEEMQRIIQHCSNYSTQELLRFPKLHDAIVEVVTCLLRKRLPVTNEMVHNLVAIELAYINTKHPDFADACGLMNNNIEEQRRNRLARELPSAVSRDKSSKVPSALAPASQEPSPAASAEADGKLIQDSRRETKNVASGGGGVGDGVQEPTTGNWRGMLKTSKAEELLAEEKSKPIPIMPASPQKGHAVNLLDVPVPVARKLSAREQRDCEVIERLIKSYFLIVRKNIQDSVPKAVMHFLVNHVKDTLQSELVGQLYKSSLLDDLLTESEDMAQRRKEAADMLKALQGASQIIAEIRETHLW

CCOP(=O)(OCC)C(NCCc1ccc(O)c(O)c1)c1ccnc2ccccc12 (centres unmarked) [DDQ, diethyl(3,4-dihydroxyphenethylamine)(quinolin-4-yl)methylphosphonate]
Drp1 levels (immunofluorescence) [1, 4]: Significantly reduced levels
PSD95 levels (immunofluorescence) [1, 4]: increased
synaptophysin levels (immunofluorescence) [1, 4]: increased
Drp1 levels (immunofluorescence) ([1]; DDQ 250 nM 24 hrs vs untreated cells): decreased Drp1 levels were found in DDQ treated cells relative to untreated cells, but this was not significant
Drp1 levels (immunofluorescence) [1, 5]: Significantly reduced levels
PSD95 levels (immunofluorescence) [1, 5]: increased
synaptophysin levels (immunofluorescence) [1, 5]: increased
co-localization of Drp1 with Aβ ([2]; DDQ post-treated Aβ incubated cells vs Aβ incubated cells alone): reduced co-localization
co-localization of Drp1 with Aβ ([2]; DDQ pre-treated Aβ incubated cells vs Aβ incubated cells alone): reduced co-localization
Aβ40 levels [3]: significantly increased
Aβ42 levels [3]: significantly decreased levels
